Consider eleven compounds from ChEMBL document CHEMBL1201862, “PubChem BioAssay data set” (2004).

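All cell lines were grown in 96-well plates and treated with compound for 48 hours. At the GI50, growth is halved.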 The source made the active and inactive calls. No stated cut-off is given here; in the data, active = GI50 up to about 1.1 µM and inactive = higher.

Holding throughout (test): DTP human tumour cell line panel, 48 h
Test [1] has as its system OVCAR-5.
Test [2] concerns OVCAR-8.
Test [3] relates to NCI/ADR-RES.
The subject of test [4] is UACC-257.
Test [5] concerns NCI-H226.
The subject of test [6] is NCI-H23.
For test [7], the system named is HL-60.
The subject of test [8] is HOP-92.
Test [9] has as its system SW-620.
The subject of test [10] is SNB-19.
The test system of test [11] is COLO 205.
Test [12] concerns U-251.
The test system of test [13] is ACHN.
The subject of test [14] is HT-29.
Test [15] concerns PC-3.
Test [16] concerns SK-MEL-2.
Test [17] deals with CCRF-CEM.
Test [18] relates to NCI-H460.
Test [19] deals with HCC 2998.
Test [20] has as its system A498.

`O=S(=O)(O)c1ccc2c(/N=N/c3cccc4ccccc34)c(O)c(S(=O)(=O)O)cc2c1`: the GI50 in test [1], in [2], in test [3], in [4], in test [5] and in test [6] was > 100 µM (inactive) each time. The GI50 in test [7], in [8], in test [9], in test [10], in [11] and in test [12] was > 100 µM (inactive) each time. Also, the GI50 in test [13], in [14], in [15], in [16] and in test [17] was > 100 µM (inactive) throughout.

For `O=C(O)C(Cc1cccs1)NC(=O)C(F)(F)F` (centres undefined), the GI50 in [1], in test [2], in test [3], in [18], in test [4] and in test [5] was > 100 µM (inactive) each time. The GI50 in test [6], in test [7], in test [8], in [9], in [10] and in test [11] was > 100 µM (inactive) throughout. Further, the GI50 in [12], in test [14], in [19], in test [16], in test [20] and in test [17] was > 100 µM (inactive) each time.

Regarding `O=C1Cc2c([nH]c3cc(Br)ccc23)-c2ccccc2N1`, the GI50 in test [1] was 9.51 µM (inactive); in test [2], 18.4 µM (inactive); in test [18] it was 15.5 µM (inactive); in test [5], 6.98 µM (inactive); in [6] it was 11.6 µM (inactive); in test [7], 58.2 µM (inactive). Moreover, the GI50 in test [8] was 31.1 µM (inactive); in test [9], 6.81 µM (inactive); in test [10], 21.9 µM (inactive); in test [11], 19.2 µM (inactive); in test [12], 14.4 µM (inactive); in [13], 17.5 µM (inactive). In addition, the GI50 was 13.9 µM (inactive) in test [14], 3.56 µM (inactive) in test [15], 21.5 µM (inactive) in test [20] and 2.19 µM (inactive) in test [17].

`CC1CC(C)(O)C2C3(C)CCCC2(COC3=O)C12CCC1(CCOC1=O)O2` (centres undefined): the GI50 in test [1], in [2], in test [3], in test [18], in [4] and in [5] was > 250 µM (inactive) throughout. The GI50 in test [6], in [7], in test [8], in test [9], in test [10] and in [11] was > 250 µM (inactive) throughout. The GI50 in [12] was > 250 µM (inactive); in test [14], > 250 µM (inactive); in test [19], > 250 µM (inactive); in [16], > 250 µM (inactive); in test [20] it was > 163 µM (inactive); in test [17] it was > 250 µM (inactive).

As for `O=C1c2ccccc2C(O)(C(=O)O)C1(O)CC=C(Cl)Cl` (centres undefined), the GI50 in test [1], in [2], in [3], in test [18], in test [4] and in test [5] was > 125 µM (inactive) throughout. For the same compound, the GI50 in [6] is > 125 µM (inactive); in test [7], > 125 µM (inactive); in [8] it was > 74.6 µM (inactive); in test [9], > 125 µM (inactive); in test [10] it was > 78.9 µM (inactive); in test [11], > 125 µM (inactive). The GI50 was > 28.2 µM (inactive) in test [12]; > 125 µM (inactive) in test [14]; > 125 µM (inactive) in test [19]; > 125 µM (inactive) in [16]; > 125 µM (inactive) in [20]; > 125 µM (inactive) in test [17].

Regarding `O=C1C(N2CCNCC2)=C(Cl)C(=O)c2ncccc21`, the GI50 was > 10 µM (inactive) in [1]; 6.19 µM (inactive) in [2]; > 10 µM (inactive) in test [18]; > 10 µM (inactive) in [4]; > 10 µM (inactive) in [5]; > 10 µM (inactive) in test [6]. In addition, the GI50 was 3.25 µM (inactive) in test [8]; 3.72 µM (inactive) in test [9]; > 10 µM (inactive) in test [10]; > 10 µM (inactive) in test [11]; > 10 µM (inactive) in [12]; > 10 µM (inactive) in test [13]. The GI50 in test [14] is > 10 µM (inactive); in test [15], > 10 µM (inactive); in test [19], > 10 µM (inactive); in test [16], > 10 µM (inactive); in test [17], 8.59 µM (inactive).

On to `CCOC(=O)c1sc2nc(SC)nc3c2c1NC(=O)CN3c1cccc(F)c1`, for which the GI50 in test [1] was 45 µM (inactive); in [2] it was 15.5 µM (inactive); in [18], 26.4 µM (inactive); in test [4], 63.5 µM (inactive); in test [5], 6.93 µM (inactive); in [6], 27 µM (inactive). Also, the GI50 in test [7] is 0.491 µM (active); in test [8], 22.5 µM (inactive); in [9] it was 0.834 µM (active); in test [10], 20.3 µM (inactive); in [11], 17.5 µM (inactive); in [12], 14.4 µM (inactive). Moreover, the GI50 was 13 µM (inactive) in [13]; 32.6 µM (inactive) in test [14]; 17.3 µM (inactive) in test [15]; 27.4 µM (inactive) in test [16]; 18.2 µM (inactive) in [20].

On to `Cc1c2ccncc2c(C)c2c1[nH]c1ccccc12` [ELLIPTECINE], for which the GI50 in [1] is 1.46 µM (inactive); in test [2] it was 0.406 µM (active); in test [3], 0.659 µM (active); in [18], 0.15 µM (active); in test [4], 1.42 µM (inactive); in test [5] it was 1.42 µM (inactive). The GI50 in test [6] is 0.656 µM (active); in [7], 0.883 µM (active); in test [8], 0.538 µM (active); in [9] it was 0.36 µM (active); in test [10], 0.826 µM (active); in test [11], 0.502 µM (active). Also, the concentration for 50% growth inhibition (GI50) is 0.771 µM (active) in test [12]; 0.863 µM (active) in [14]; 2.68 µM (inactive) in test [19]; 2.77 µM (inactive) in test [16]; 0.794 µM (active) in test [20]; 0.411 µM (active) in test [17].

For `COc1cc(OC2OC(CO)C(O)C(O)C2O)c2c(O)c3c(=O)cc(C)oc3cc2c1` (centres undefined), the GI50 is > 100 µM (inactive) in test [1]; > 100 µM (inactive) in [2]; > 100 µM (inactive) in test [18]; > 100 µM (inactive) in [4]; 9.55 µM (inactive) in test [5]; > 100 µM (inactive) in test [6]. Besides, the GI50 in test [7] is > 100 µM (inactive); in test [8] it was > 10 µM (inactive); in test [9], > 100 µM (inactive); in test [10], > 100 µM (inactive); in [11], > 100 µM (inactive); in test [12], > 100 µM (inactive). For the same compound, the GI50 in test [13], in [14], in [15], in test [19], in test [16] and in test [20] was > 100 µM (inactive) each time. Also, the GI50 in test [17] is > 100 µM (inactive).

In the case of `CC(C)c1oc(=O)cc2c1C(O)C1OC(=O)C3(C)C(O)C4OC4C2(C)C13` (centres undefined) [NAGILACTONE], the GI50 was 9.48 µM (inactive) in test [1]; 1.75 µM (inactive) in test [2]; 12.9 µM (inactive) in test [3]; 0.733 µM (active) in test [18]; 1.83 µM (inactive) in test [4]; 2.16 µM (inactive) in test [5]. Besides, the GI50 was 1.36 µM (inactive) in [6]; 0.478 µM (active) in test [7]; 0.7 µM (active) in test [8]; 1.45 µM (inactive) in [9]; 0.573 µM (active) in [10]; 1.13 µM (inactive) in test [11]. Further, the GI50 in test [12] was 1.58 µM (inactive); in test [14], 1.69 µM (inactive); in test [19], 1.86 µM (inactive); in [16] it was 2.16 µM (inactive); in [20], 0.569 µM (active); in test [17], 0.817 µM (active).

On to `CCn1c(=O)c(C(=O)O)c(Cl)c2cc3c(cc21)OCO3`, for which the GI50 in [1], in test [2], in [3], in [18], in test [4] and in test [5] was > 100 µM (inactive) throughout. Moreover, the GI50 in [6], in test [7], in test [8], in [9], in test [10] and in [11] was > 100 µM (inactive) in each case. Moreover, the GI50 in [12], in test [14], in test [19], in [16], in test [20] and in test [17] was > 100 µM (inactive) throughout.

The term GI50 denotes the concentration at which growth is held to half of that of the control.
